The target in this test is T1, BACE1 enzyme (Homo sapiens, UniProt P56817).
T1 construct: which overexpresses the BACE1 enzyme, was derived from HEK293 cells; endogenous in cells; washed 48,000 x g pellet of the cell homogenate
Kind of test: Radioligand displacement assay with a radiolabeled BACE inhibitor, HEK293-9B.A1 cell homogenate. The class given is binding. The source says: There are a number of methods by which inhibitors of the BACE enzyme can be identified experimentally. The enzyme can be obtained from membrane samples from natural tissues or cultured cells or can be expressed recombinantly in a host cell by well known methods of molecular biology. […] The enzymatic activity and/or ligand binding capability of the enzyme can be assessed within these membrane samples, or the enzyme can be purified to varying extents. As an illustrative example, the nucleic acid sequence encoding the pro and catalytic domains of human BACE can be appended on the 5′ end with an untranslated and signal sequence from the gene for acetylcholinesterase, and on the 3′ end with a sequence encoding a poly-histidine tag. This cDNA can then be expressed in Drosophila melanogaster S2 cells in which the signal and pro sequences of the transcribed/translated protein are removed by cellular proteases and the catalytic domain, appended by a C-terminal poly-histidine tag, is secreted out into the cellular medium. The enzyme can then be purified from the culture medium by nickel affinity chromatography by methods well known to those trained in the art [Mallender, W. et al., “Characterization of recombinant, soluble beta-secretase from an insect cell expression system.” Mol. Pharmacol. 2001, 59: 619-626]. Similar strategies for expressing and purifying various forms of BACE in bacterial, mammalian and other cell types would be known to one skilled in the art.
Radioligand displacement assays with a radiolabeled BACE inhibitor (WO 2004 013098, compound 3, where the methoxy group is substituted for C(^3H)3) were carried out using standard methods (Keen, M. (1999) in Receptor Binding Techniques (Walker, J. M. ed) p. 106 Humana Press, Totowa, N.J.). The HEK293-9B.A1 cell line, which overexpresses the BACE1 enzyme, was derived from HEK293 cells (Simmons, N. L. (1990) A cultured human renal epithelioid cell line responsive to vasoactive intestinal peptide. Exp. Physiol. 75:309-19.) by RAGE™ (Harrington, J. J. et al. (2001) Creation of genome-wide protein expression libraries using random activation of gene expression. Nat. Biotechnol. 19:440-5.; U.S. Pat. Nos. 6,410,266 and 6,361,972). T225 flask cultures of HEK293-9B.A1 were grown to 80% confluency in DMEM supplemented with 2 mM L-glutamine, 10 μg/ml penecillin, 10 μg/ml streptomycin, 3 μg/ml puromycin, 100 nM methotrexate, and 10% fetal bovine serum (Invitrogen, Carlsbad, Calif.), harvested, and resuspended at 2×10^8 cells per 10 ml of lysis buffer consisting of 50 mM HEPES pH 7.0 containing a protease inhibitor cocktail of AEBSF 104 μM, aprotinin 80 nM, leupeptin 2 μM, bestatin 4 μM, pepstatin A 1.5 μM, and E-64 1.4 μM (0.1% of protease inhibitor cocktail P8340, Sigma-Aldrich, St. Louis, Mo.) at 4° C. The resuspended cells were homogenized using a Polytron (Brinkman, Westbury, N.Y.) at setting 6 for 10 sec., then centrifuged at 48,000×g for 10 min. The resulting pellet was washed by repeating the resuspension, homogenization and centrifugation steps. The final pellet was resuspended in buffer at 4° C. to yield a total protein concentration of 5 mg/ml, then aliquots were frozen in liquid nitrogen for further storage at −70° C. Immediately before carrying out a binding assay, an aliquot of cell homogenate was thawed and diluted to a concentration of 100 μg/ml in assay buffer consisting of 50 mM HEPES pH 5.0 and 0.1% CHAPSO. Assays were initiated in polypropylene 96-well plates (Costar, Cambridge, Mass.) by the addition of 200 μl of cell homogenate to 50 μl of assay buffer containing 1 nM radioligand (WO 2004 013098, compound 3, where the methoxy group is substituted for C(^3H)3: 80 Ci/mMol) and various concentrations of unlabelled compounds, and incubated for 1.5 hr. at 25° C. Separation of bound from free radioligand was by filtration on GFF glass fiber filters (Innotech Biosystems International, Lansing, Mich.) using an Innotech cell harvester.

The mark [1] stands for this setting: displacement of 1 nM tritiated radioligand, HEK293-9B.A1 homogenate, pH 5.0, 1.5 hr at 25° C., read-out: Activity Rating (Activity based on IC50 values).

Where two headings read alike, the source gives them in different places.

T1 sequence (P56817 46-501): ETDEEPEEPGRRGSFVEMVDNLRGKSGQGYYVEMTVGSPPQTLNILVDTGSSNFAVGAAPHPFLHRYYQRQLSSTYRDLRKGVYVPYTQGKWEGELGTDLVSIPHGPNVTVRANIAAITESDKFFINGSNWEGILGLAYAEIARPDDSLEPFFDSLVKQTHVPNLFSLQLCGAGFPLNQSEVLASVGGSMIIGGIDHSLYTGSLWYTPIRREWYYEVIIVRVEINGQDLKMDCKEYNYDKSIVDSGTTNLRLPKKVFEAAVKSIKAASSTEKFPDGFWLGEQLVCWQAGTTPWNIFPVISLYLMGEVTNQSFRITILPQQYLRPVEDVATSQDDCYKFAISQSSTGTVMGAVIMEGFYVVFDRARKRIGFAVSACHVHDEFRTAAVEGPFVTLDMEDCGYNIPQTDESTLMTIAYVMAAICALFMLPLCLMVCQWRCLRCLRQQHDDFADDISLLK

As to `CCC(C)[C@@]1(NC(C)=O)CCN([C@@H](CCc2ccccc2)C(=O)N[C@@H](Cc2cc(F)cc(F)c2)[C@H](O)[C@H]2Cc3ccccc3CN2)C1=O` (stereo in doubt) [Example 1, (S)-2-((S)-3-Acetamido-3-((R)-sec-butyl)-2-oxopyrrolidin-1-yl)-N-((1R,2S)-3-(3,5-difluorophenyl)-1-hydroxy-1-((R)-1,2,3,4-tetrahydroisoquinolin-3-yl)propan-2-yl)-4-phenylbutanamide], the IC50 under setting [1] was below 10 nM.

Consider `CCC(C)[C@@]1(NC(C)=O)CCN([C@@H](CCc2ccccc2)C(=O)N[C@@H](Cc2cc(F)cc(F)c2)[C@H](O)[C@@H]2Cc3ccccc3CN2)C1=O` (stereo in doubt) [Example 2, (S)-2-((S)-3-Acetamido-3-((R)-sec-butyl)-2-oxopyrrolidin-1-yl)-N-((1R,2S)-3-(3,5-difluorophenyl)-1-hydroxy-1-((S)-1,2,3,4-tetrahydroisoquinolin-3-yl)propan-2-yl)-4-phenylbutanamide], for which the IC50 under setting [1] fell in the range of 10 to 1000 nM.

`CCCOc1cccc2c1CN[C@@H]([C@@H](O)[C@H](Cc1cc(F)cc(F)c1)NC(=O)[C@H](CCc1ccccc1)N1CC[C@](NC(C)=O)([C@H](C)CC)C1=O)C2` [Example 3, (S)-2-((S)-3-Acetamido-3-((R)-sec-butyl)-2-oxopyrrolidin-1-yl)-N-((1R,2S)-3-(3,5-difluorophenyl)-1-hydroxy-1-((R)-8-propoxy-1,2,3,4-tetrahydroisoquinolin-3-yl)propan-2-yl)-4-phenylbutanamide]: the IC50 under setting [1] is below 10 nM.

As for `CCCC[C@H]1CCN([C@@H](CCc2ccccc2)C(=O)N[C@@H](Cc2cc(F)cc(F)c2)[C@H](O)[C@H]2Cc3ccccc3CN2)C1=O` [Example 4], the IC50 under setting [1] was above 1000 nM.

For `CCCC[C@H]1CCN([C@@H](C)C(=O)N[C@@H](Cc2cc(F)cc(F)c2)[C@H](O)[C@H]2Cc3ccccc3CN2)C1=O` [Example 5, (S)-2-((S)-3-Butyl-2-oxopyrrolidin-1-yl)-N-((1R,2S)-3-(3,5-difluorophenyl)-1-hydroxy-1-((R)-1,2,3,4-tetrahydroisoquinolin-3-yl)propan-2-yl)propanamide], the IC50 under setting [1] was above 1000 nM.

On to `CC(=O)N[C@]1(CC(C)C)CCN([C@@H](CCc2ccccc2)C(=O)N[C@@H](Cc2cc(F)cc(F)c2)[C@H](O)[C@H]2Cc3ccccc3CN2)C1=O` [Example 6, (S)-2-((R)-3-Acetamido-3-isobutyl-2-oxopyrrolidin-1-yl)-N-((1R,2S)-3-(3,5-difluorophenyl)-1-hydroxy-1-((R)-1,2,3,4-tetrahydroisoquinolin-3-yl)propan-2-yl)-4-phenylbutanamide], for which, under setting [1], the IC50 is below 10 nM.

Turning to `CCC(C)[C@@]1(NC(C)=O)CCN([C@@H](CCc2ccccc2)C(=O)N[C@@H](Cc2cc(F)cc(F)c2)[C@H](O)C2Cc3cccc(OC)c3CN2)C1=O` (stereo partly drawn) [Example 7, (2S)-2-((S)-3-Acetamido-3-sec-butyl-2-oxopyrrolidin-1-yl)-N-((1R,2S)-3-(3,5-difluorophenyl)-1-hydroxy-1-(8-methoxy-1,2,3,4-tetrahydroisoquinolin-3-yl)propan-2-yl)-4-phenylbutanamide], the IC50 under setting [1] was below 10 nM.

`CCCCN(C)C(=O)n1cc(C(=O)N[C@@H](Cc2cc(F)cc(F)c2)[C@H](O)C2Cc3ccccc3CN2)c2cccnc21` (stereo partly drawn) [Example 8, N^1-Butyl-N^3-((1R,2S)-3-(3,5-difluorophenyl)-1-hydroxy-1-(1,2,3,4-tetrahydroisoquinolin-3-yl)propan-2-yl)-N^1-methyl-1H-pyrrolo[2,3-b]pyridine-1,3-dicarboxamide] yielded an IC50 above 1000 nM.

(Values after US7902218B2, “Substituted tetrahydroisoquinolines as β-secretase inhibitors” (Bristol-Myers Squibb Company, priority 2006, dated 2011).)
